Results: patent US20060210620A1, “Co-precipitated amorphous losartan and dosage forms comprising the same” (priority 2003, published 2006)

Assay: Accelerated stability testing at 40° C. and 75% relative humidity, solid form evaluated by X-ray diffraction
Type: physicochemical
Settings: storage time not stated (spectra taken later in time, FIG. 1)
Protocol: The term “stable” as used herein refers to less than about 5% conversion of the amorphous form of losartan to a crystalline form of losartan when stored at 40° C. and 75 percent relative humidity for three months.
The amorphous solids of the following examples were evaluated for the presence of crystals and/or other degradative products using X-ray diffraction (XRD) techniques, supplemented with infrared and differential scanning calorimetry. The examples are meant to further exemplify the invention and are not intended to limit the scope of the invention.

CCCCc1nc(Cl)c(CO)n1Cc1ccc(-c2ccccc2-c2nn[nH]n2)cc1 [Example 1, losartan potassium]
Solid form (amorphous/crystalline) by XRD after accelerated stability conditions: almost all of the solid material converted to the crystalline form
